# Experiments:
# [1] = cited from earlier work
# [2] = Storage stability of packaged anhydrous crystalline decitabine (TGA weight loss); assay type: physicochemical; details: 40±2° C., relative humidity 75±5%, described packaging
# Procedure: Thermogravimetric analyses reported herein for decitabine were carried out using a SHIMADZU, DTG-60, Thermogravimetric Analyzer with a ramp of 10° C./minute up to 250° C.
# In embodiments, the present application provides a storage system for decitabine. A storage system of the present application comprises at least one sealed polymeric bag, (e.g., a transparent or opaque polyethylene bag having a thickness of about 0.1 mm to about 0.5 mm) or a combination of such bags, which, if desired, may be sealed inside a laminated aluminum bag. An oxygen absorbent and a moisture absorbent (or desiccant), may be included between one or more of such bags. Finally, the packaged material is stored in sealed HDPE containers.
# Anhydrous crystalline decitabine with an initial XRD pattern substantially in accordance with FIG. 4 remains stable for a period at least about 4 months, or about 6 months, when stored at 40±2° C. and a relative humidity of 75±5% under the packaging conditions described above. The TGA weight losses of representative samples stored under these conditions are tabulated below.
# [3] = Hygroscopicity of decitabine (hygroscopic stability); assay type: physicochemical; details: for Moisture (Wt. %): room temperature
# Procedure: Decitabine obtained from Example 10 is tested for hygroscopic stability. Samples are analyzed as initially prepared, and at intervals after 1 day and 7 days of storage at room temperature; the results are tabulated below.
SMILES,stability ([1]; room temperature),period for which it remains stable [2],TGA Weight Loss (%) ([2]; storage time 1 month),TGA Weight Loss (%) ([2]; storage time 2 months),TGA Weight Loss (%) ([2]; storage time 3 months),TGA Weight Loss (%) ([2]; storage time 4 months),"Moisture (Wt. %) ([3]; 40-50% RH, 1 day)","Moisture (Wt. %) ([3]; 40-50% RH, 7 days)","Moisture (Wt. %) ([3]; 40-50% RH, initial)","Moisture (Wt. %) ([3]; 90% RH, 1 day)","Moisture (Wt. %) ([3]; 90% RH, 7 days)","Moisture (Wt. %) ([3]; 90% RH, initial)",moisture content acquired ([3]; exposed to the atmosphere),solid form after moisture uptake ([3]; exposed to the atmosphere),"moisture at equilibrium ([1]; exposed to humidity, monohydrate formed) [%]"
Nc1ncn([C@H]2C[C@H](O)[C@@H](CO)O2)c(=O)n1 [Decitabine monohydrate],stable,,,,,,,,,,,,,,
"Nc1ncn([C@H]2C[C@H](O)[C@@H](CO)O2)c(=O)n1 [Decitabine, 4-amino-1-(2-deoxy-β-D-erythropentofuranosyl)-1,3,5-triazin-2(1H)-one]",,at least 4 months,0.07,0.15,0.26,0.16,6.63,7.12,0.18,5.46,7.17,0.18,up to 1 mole,change to a monohydrate form,7
